Test results as given in PMC6540285, “Evaluation of Protein Kinase Inhibitors with PLK4 Cross-Over Potential in a Pre-Clinical Model of Cancer” (International Journal of Molecular Sciences, 2019).

Assays:
[1] = biological target: MAP2K1 (MEK1) (Homo sapiens, UniProt Q02750); assay: SelectScreen kinase profiling, ZLYTE; format: biochemical
[2] = biological target: AURKA (Aurora A) (Homo sapiens, UniProt O14965); assay: SelectScreen kinase profiling, ZLYTE; format: biochemical
[3] = biological target: ALK L1196M (Homo sapiens, UniProt Q9UM73, L1196M); assay: SelectScreen kinase profiling, LanthaScreen binding
[4] = biological target: KIT V559D V654A (Homo sapiens, UniProt P10721, V559D/V654A); assay: SelectScreen kinase profiling, ZLYTE; format: biochemical
[5] = biological target: EPHA4 (Homo sapiens, UniProt P54764); assay: SelectScreen kinase profiling, ZLYTE; format: biochemical; settings: EPHA4, 10 µM
[6] = biological target: DAPK1 (Homo sapiens, UniProt P53355); assay: SelectScreen kinase profiling, Adapta; format: biochemical; settings: DAPK1, 10 µM
[7] = biological target: ACVR2B (Homo sapiens, UniProt Q13705); assay: SelectScreen kinase profiling, LanthaScreen binding
[8] = biological target: BRSK2 (Homo sapiens, UniProt Q8IWQ3); assay: as above; settings: BRSK2, 10 µM
[9] = biological target: KIT V559D (Homo sapiens, UniProt P10721, V559D); assay: SelectScreen kinase profiling, ZLYTE; format: biochemical
[10] = biological target: PIP5K1B (Homo sapiens, UniProt O14986); assay: SelectScreen kinase profiling, Adapta; format: biochemical
[11] = biological target: EPHA2 (Homo sapiens, UniProt P29317); assay: SelectScreen kinase profiling, ZLYTE; settings: read-out: % Inhibition Avg
[12] = biological target: MAPK13 (p38 delta) (Homo sapiens, UniProt O15264); assay: SelectScreen kinase profiling, ZLYTE; format: biochemical
[13] = biological target: MYLK (MLCK) (Homo sapiens, UniProt Q15746); assay: SelectScreen kinase profiling, LanthaScreen binding
Chain of MYLK (MLCK) (Q15746 whole entry): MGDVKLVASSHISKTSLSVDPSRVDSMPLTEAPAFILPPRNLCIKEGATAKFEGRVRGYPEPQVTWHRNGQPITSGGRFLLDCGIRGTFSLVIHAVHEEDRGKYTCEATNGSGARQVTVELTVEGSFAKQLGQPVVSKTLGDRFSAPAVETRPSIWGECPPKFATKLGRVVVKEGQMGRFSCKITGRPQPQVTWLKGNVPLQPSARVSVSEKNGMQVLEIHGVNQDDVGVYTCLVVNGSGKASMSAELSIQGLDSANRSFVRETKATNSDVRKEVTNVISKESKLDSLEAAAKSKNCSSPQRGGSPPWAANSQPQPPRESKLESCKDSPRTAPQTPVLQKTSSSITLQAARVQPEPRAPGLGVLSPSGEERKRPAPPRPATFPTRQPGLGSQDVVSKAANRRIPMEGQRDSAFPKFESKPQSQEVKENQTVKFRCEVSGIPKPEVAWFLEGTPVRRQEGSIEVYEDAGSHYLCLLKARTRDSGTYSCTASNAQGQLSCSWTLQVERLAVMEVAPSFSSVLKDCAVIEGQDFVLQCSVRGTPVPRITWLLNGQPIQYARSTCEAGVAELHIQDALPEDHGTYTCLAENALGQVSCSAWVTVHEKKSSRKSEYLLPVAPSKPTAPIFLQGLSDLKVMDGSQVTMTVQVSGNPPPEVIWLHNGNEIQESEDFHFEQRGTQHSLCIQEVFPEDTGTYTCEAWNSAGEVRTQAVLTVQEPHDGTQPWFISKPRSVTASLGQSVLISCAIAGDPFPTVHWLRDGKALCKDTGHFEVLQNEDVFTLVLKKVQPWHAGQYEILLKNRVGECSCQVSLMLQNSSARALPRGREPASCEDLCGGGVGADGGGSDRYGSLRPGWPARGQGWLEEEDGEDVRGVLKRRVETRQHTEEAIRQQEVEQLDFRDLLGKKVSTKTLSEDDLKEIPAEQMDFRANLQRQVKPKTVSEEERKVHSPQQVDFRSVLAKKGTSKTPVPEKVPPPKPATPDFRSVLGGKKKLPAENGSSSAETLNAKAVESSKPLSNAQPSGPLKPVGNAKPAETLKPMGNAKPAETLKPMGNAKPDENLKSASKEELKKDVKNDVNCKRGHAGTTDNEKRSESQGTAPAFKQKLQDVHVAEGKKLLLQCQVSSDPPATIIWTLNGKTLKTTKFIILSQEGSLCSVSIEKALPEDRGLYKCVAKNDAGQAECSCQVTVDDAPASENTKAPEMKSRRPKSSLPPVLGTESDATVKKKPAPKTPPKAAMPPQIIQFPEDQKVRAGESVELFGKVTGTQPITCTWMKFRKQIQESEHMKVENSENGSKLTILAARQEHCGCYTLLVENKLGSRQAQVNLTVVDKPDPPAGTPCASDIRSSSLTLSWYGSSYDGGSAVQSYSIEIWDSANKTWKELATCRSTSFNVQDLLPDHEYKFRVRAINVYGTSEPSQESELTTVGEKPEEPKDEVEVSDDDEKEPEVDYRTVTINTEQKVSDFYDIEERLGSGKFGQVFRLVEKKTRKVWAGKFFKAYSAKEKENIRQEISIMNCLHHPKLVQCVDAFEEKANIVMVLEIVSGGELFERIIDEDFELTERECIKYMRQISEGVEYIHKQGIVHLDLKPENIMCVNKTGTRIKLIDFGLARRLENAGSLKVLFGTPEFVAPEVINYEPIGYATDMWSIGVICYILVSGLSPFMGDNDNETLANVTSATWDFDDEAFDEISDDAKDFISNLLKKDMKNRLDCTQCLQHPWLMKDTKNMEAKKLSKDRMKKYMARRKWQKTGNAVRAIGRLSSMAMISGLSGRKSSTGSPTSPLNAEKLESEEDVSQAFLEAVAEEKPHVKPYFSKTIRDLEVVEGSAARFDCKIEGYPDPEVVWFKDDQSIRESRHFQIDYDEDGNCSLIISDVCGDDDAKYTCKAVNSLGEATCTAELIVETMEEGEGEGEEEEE

[14] = biological target: LIMK1 (Homo sapiens, UniProt P53667); assay: as above; settings: LIMK1, 10 µM
[15] = biological target: GAK (Homo sapiens, UniProt O14976); assay: as above
Chain of GAK (O14976 whole entry): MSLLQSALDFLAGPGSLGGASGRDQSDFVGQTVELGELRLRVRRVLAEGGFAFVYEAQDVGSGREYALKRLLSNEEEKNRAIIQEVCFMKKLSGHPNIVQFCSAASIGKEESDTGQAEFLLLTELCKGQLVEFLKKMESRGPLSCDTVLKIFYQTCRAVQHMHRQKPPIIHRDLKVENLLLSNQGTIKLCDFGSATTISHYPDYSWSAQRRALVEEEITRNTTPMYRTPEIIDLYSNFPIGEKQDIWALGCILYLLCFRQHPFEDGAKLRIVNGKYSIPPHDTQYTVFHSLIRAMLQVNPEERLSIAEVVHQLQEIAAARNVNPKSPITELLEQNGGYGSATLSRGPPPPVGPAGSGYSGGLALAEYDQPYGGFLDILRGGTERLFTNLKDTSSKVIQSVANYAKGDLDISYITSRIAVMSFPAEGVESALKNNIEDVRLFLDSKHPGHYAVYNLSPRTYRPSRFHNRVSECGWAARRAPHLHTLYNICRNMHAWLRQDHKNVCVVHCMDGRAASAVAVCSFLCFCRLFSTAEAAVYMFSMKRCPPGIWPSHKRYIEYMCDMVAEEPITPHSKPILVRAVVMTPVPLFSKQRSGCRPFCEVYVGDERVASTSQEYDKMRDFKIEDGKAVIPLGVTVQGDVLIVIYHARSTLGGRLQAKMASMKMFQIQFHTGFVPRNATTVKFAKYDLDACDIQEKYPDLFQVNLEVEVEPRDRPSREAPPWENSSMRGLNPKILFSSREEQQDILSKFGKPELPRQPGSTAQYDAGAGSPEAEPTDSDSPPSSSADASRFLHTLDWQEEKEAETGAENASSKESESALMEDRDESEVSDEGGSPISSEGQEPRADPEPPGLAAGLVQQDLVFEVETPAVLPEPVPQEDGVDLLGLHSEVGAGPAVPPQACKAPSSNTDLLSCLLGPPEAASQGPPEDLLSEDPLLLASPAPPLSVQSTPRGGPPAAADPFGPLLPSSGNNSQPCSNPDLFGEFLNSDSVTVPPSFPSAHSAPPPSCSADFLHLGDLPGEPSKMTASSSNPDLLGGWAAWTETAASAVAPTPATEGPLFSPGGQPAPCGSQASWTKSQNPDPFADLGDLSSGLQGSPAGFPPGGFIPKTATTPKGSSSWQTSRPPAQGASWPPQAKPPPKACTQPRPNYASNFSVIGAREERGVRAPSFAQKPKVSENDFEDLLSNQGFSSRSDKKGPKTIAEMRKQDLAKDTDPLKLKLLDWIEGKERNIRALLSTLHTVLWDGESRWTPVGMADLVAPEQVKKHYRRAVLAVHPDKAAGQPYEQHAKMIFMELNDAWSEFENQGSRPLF

[16] = biological target: ABL1 Y253F (Homo sapiens, UniProt P00519, Y253F); assay: SelectScreen kinase profiling, ZLYTE; format: biochemical
[17] = biological target: FLT4 (VEGFR3) (Homo sapiens, UniProt P35916); assay: SelectScreen kinase profiling, ZLYTE; format: biochemical
[18] = biological target: ABL2 (Arg) (Homo sapiens, UniProt P42684); assay: SelectScreen kinase profiling, ZLYTE; format: biochemical
[19] = biological target: KIT Y823D (Homo sapiens, UniProt P10721, Y823D); assay: SelectScreen kinase profiling, LanthaScreen binding
[20] = biological target: NTRK1 (TRKA) (Homo sapiens, UniProt P04629); assay: SelectScreen kinase profiling, ZLYTE; format: biochemical
Chain of NTRK1 (TRKA) (P04629 33-796): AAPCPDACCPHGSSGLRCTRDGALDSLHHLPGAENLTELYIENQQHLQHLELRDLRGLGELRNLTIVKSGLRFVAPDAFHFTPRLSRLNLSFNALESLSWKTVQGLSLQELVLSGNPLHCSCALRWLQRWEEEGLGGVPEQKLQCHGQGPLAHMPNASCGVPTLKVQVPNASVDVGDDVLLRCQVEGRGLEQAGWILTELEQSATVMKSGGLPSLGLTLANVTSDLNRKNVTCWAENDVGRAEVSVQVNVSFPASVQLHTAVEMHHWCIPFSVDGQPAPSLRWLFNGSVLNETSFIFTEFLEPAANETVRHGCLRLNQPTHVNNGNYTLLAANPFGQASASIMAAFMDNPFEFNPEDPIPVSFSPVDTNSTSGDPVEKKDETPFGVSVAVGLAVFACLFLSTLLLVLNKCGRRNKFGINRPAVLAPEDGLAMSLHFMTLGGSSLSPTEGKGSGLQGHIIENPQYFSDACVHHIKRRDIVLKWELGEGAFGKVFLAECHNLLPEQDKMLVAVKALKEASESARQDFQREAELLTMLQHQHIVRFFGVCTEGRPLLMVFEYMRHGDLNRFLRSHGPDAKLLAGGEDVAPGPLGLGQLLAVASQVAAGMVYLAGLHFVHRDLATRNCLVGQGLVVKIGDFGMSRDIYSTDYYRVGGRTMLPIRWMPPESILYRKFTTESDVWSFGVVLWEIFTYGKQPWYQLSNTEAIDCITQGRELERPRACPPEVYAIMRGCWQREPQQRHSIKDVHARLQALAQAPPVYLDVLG

[21] = biological target: RET V804L (Homo sapiens, UniProt P07949, V804L); assay: SelectScreen kinase profiling, ZLYTE; format: biochemical
[22] = biological target: HCK (Homo sapiens, UniProt P08631); assay: SelectScreen kinase profiling, ZLYTE; format: biochemical
[23] = biological target: KIT D816H (Homo sapiens, UniProt P10721, D816H); assay: SelectScreen kinase profiling, LanthaScreen binding
[24] = biological target: IKBKB (IKK beta) (Homo sapiens, UniProt O14920); assay: SelectScreen kinase profiling, ZLYTE; format: biochemical
[25] = biological target: FGFR1 V561M (Homo sapiens, UniProt P11362, V561M); assay: SelectScreen kinase profiling, LanthaScreen binding
[26] = biological target: MINK1 (Homo sapiens, UniProt Q8N4C8); assay: SelectScreen kinase profiling, ZLYTE; format: biochemical; settings: MINK1, 10 µM
[27] = biological target: LCK (Homo sapiens, UniProt P06239); assay: SelectScreen kinase profiling, ZLYTE; format: biochemical
[28] = biological target: CLK3 (Homo sapiens, UniProt P49761); assay: SelectScreen kinase profiling, ZLYTE; format: biochemical; settings: CLK3, 10 µM
[29] = biological target: AKT1 (PKB alpha) (Homo sapiens, UniProt P31749); assay: SelectScreen kinase profiling, ZLYTE; format: biochemical
[30] = biological target: MAPK14 (p38 alpha) Direct (Homo sapiens, UniProt Q16539); assay: SelectScreen kinase profiling, ZLYTE; format: biochemical
[31] = biological target: JAK3 (Homo sapiens, UniProt P52333); assay: SelectScreen kinase profiling, ZLYTE; format: biochemical; settings: JAK3, 10 µM
[32] = biological target: FGFR2 (Homo sapiens, UniProt P21802); assay: SelectScreen kinase profiling, ZLYTE; format: biochemical; settings: FGFR2, 10 µM
[33] = biological target: GRK7 (Homo sapiens, UniProt Q8WTQ7); assay: SelectScreen kinase profiling, ZLYTE; format: biochemical; settings: GRK7, 10 µM
[34] = biological target: BMPR2 (Homo sapiens, UniProt Q13873); assay: SelectScreen kinase profiling, LanthaScreen binding; settings: BMPR2, 10 µM
[35] = biological target: DCAMKL1 (DCLK1) (Homo sapiens, UniProt O15075); assay: SelectScreen kinase profiling, ZLYTE; format: biochemical
Chain of DCAMKL1 (DCLK1) (O15075 whole entry): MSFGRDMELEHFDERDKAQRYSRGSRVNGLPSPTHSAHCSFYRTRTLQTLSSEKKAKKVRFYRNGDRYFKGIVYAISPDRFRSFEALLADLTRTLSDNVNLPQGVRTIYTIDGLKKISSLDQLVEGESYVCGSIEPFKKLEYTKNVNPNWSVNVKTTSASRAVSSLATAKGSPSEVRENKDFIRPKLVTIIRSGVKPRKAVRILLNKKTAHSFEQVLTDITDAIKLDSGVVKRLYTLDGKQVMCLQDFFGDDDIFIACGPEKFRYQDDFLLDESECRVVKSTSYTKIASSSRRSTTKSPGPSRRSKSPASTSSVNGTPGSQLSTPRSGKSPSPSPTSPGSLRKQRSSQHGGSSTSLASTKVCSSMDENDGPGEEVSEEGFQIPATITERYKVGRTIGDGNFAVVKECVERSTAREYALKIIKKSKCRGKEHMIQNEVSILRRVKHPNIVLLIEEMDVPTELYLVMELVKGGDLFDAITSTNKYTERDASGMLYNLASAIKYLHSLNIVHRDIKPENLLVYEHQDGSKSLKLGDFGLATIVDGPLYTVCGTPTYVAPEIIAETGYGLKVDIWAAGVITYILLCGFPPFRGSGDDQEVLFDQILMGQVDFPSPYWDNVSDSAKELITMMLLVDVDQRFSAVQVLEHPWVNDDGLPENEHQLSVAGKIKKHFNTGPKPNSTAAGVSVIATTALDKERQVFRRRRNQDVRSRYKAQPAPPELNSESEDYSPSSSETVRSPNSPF

[36] = test system: BT-16 cells; format: cell-based; settings: BT-16, read-out: MTT: IC50 of the proliferation assay
[37] = biological target: CDK3/cyclin E1 (Homo sapiens, UniProt Q00526); assay: SelectScreen kinase profiling, LanthaScreen binding; settings: CDK3/cyclin E1, 10 µM
[38] = biological target: PIK3CA E542K/PIK3R1 (p110 alpha E542K/p85 alpha) (Homo sapiens, UniProt P42336, E542K); assay: SelectScreen kinase profiling, Adapta; format: biochemical; settings: PIK3CA E542K/PIK3R1, 10 µM
[39] = biological target: STK32B (YANK2) (Homo sapiens, UniProt Q9NY57); assay: SelectScreen kinase profiling, LanthaScreen binding

Chain of MAP2K1 (MEK1) (Q02750 whole entry): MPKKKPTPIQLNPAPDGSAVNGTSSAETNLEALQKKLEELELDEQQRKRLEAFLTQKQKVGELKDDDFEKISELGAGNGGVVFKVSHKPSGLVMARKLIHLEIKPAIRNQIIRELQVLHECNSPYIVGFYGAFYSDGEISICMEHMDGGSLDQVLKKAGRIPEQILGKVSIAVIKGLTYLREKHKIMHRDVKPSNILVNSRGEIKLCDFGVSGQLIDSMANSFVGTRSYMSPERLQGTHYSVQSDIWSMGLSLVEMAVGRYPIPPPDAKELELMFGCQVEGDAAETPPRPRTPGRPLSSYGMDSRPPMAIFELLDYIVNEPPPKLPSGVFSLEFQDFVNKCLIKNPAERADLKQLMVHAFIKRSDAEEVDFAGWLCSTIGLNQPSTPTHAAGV

## O=C(c1ccc(/C=C/c2n[nH]c3ccccc23)cc1)N1CCNCC1 [KW-2449]
[1]
  inhibition at 10 µM: 72%
[2]
  inhibition at 10 µM: 98%
[3]
  inhibition at 10 µM: 13%
[4]
  inhibition at 10 µM: 77%
[5]
  inhibition at 10 µM: 83%
[6]
  inhibition at 10 µM: 90%
[7]
  inhibition at 10 µM: 94%
[8]
  inhibition at 10 µM: 7%
[9]
  inhibition at 10 µM: 91%
[10]
  inhibition at 10 µM: 32%
[11]
  inhibition at 10 µM: 98%
[12]
  inhibition at 10 µM: 30%
[13]
  inhibition at 10 µM: 80%
[14]
  inhibition at 10 µM: 32%
[15]
  inhibition at 10 µM: 67%
[16]
  inhibition at 10 µM: 100%
[17]
  inhibition at 10 µM: 95%
[18]
  inhibition at 10 µM: 98%
[19]
  inhibition at 10 µM: 61%
[20]
  inhibition at 10 µM: 98%
[21]
  inhibition at 10 µM: 100%
[22]
  inhibition at 10 µM: 90%
[23]
  inhibition at 10 µM: 42%
[24]
  inhibition at 10 µM: 66%
[25]
  inhibition at 10 µM: 30%
[26]
  inhibition at 10 µM: 102%
[27]
  inhibition at 10 µM: 97%
[28]
  inhibition at 10 µM: 66%
[29]
  inhibition at 10 µM: 24%
[30]
  inhibition at 10 µM: 44%
[31]
  inhibition at 10 µM: 98%
[32]
  inhibition at 10 µM: 97%
[33]
  inhibition at 10 µM: 41%
[34]
  inhibition at 10 µM: 113%
[35]
  inhibition at 10 µM: 57%
[36]
  IC50: > 10 µM
[37]
  inhibition at 10 µM: 48%
[38]
  inhibition at 10 µM: 13%
[39]
  inhibition at 10 µM: 61%
